pIC50: −log10 of the molar value. Bridge positions count the residues as written; N and C are the ends. Peptide text beside a SMILES is read from it.
Legend:
α9α10 nAChR = settings: cited from earlier work
GABAB receptors = settings: cited from earlier work
Mouse α1β1γδ nAChR = molecular target: T1, Mouse α1β1γδ nAChR (Mus musculus, UniProt P02716+P04756+P09690+P20782); assay: cell-based
T1 construct: expressed in transfected cells; host or cells: Xenopus oocytes injected with cRNA
T1 sequence (P04756 21-457 limits assumed): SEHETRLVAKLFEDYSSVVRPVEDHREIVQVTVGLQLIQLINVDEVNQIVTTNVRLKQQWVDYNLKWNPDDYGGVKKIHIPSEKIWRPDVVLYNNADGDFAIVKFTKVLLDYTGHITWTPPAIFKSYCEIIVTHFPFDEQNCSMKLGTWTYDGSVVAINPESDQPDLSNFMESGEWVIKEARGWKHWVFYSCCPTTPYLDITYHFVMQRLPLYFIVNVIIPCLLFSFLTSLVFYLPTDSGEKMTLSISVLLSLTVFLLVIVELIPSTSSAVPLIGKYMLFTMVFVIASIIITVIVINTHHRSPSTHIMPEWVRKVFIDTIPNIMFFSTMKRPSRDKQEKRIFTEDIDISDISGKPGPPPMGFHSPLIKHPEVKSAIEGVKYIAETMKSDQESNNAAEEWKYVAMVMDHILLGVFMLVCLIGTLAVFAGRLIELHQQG
T1 sequence (P09690 24-501 partner limits assumed): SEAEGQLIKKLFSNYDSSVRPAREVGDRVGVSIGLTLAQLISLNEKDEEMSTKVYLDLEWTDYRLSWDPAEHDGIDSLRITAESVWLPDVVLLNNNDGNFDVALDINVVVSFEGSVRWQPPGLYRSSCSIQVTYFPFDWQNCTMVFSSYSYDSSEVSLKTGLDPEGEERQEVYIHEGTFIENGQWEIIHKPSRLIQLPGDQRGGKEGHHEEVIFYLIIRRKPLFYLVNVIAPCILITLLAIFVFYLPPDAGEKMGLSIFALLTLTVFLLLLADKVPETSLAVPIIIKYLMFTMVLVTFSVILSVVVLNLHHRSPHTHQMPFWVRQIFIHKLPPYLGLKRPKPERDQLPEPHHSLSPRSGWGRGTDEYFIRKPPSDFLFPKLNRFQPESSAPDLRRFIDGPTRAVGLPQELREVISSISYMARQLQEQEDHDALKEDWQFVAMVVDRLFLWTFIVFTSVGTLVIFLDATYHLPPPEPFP
T1 sequence (P02716 25-520 limits assumed): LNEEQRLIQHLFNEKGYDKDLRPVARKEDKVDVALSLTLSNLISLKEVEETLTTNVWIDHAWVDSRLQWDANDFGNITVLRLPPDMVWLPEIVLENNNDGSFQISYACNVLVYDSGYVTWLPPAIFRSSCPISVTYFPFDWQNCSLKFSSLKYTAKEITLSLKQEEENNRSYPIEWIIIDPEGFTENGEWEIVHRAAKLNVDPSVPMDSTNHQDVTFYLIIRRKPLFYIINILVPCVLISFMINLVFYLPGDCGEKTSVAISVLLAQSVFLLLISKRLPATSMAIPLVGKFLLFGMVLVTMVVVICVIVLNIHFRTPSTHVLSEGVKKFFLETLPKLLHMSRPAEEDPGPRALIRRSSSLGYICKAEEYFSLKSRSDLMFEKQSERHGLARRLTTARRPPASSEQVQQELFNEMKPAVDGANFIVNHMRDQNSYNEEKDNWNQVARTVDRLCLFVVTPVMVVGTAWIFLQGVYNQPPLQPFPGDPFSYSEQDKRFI
T1 sequence (P20782 21-493 limits assumed): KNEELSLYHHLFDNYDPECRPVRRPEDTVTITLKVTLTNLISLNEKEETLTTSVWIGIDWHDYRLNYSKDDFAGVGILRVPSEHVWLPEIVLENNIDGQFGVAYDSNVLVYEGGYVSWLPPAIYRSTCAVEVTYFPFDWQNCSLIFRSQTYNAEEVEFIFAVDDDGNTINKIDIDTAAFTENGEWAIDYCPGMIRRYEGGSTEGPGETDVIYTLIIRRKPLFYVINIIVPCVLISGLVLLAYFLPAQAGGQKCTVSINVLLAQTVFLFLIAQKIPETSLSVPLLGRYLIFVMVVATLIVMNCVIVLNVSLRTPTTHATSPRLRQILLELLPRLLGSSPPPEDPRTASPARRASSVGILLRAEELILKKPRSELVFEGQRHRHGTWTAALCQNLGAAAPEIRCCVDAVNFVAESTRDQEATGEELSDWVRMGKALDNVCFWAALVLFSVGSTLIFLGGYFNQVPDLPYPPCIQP

Row | Molecule | pIC50 (α9α10 nAChR) | activity at GABAB receptors (GABAB receptors) | pIC50 (Mouse α1β1γδ nAChR)
1 | α-conotoxin RgIA | 7.72 | activate GABAB receptors | –
2 | CC(C)C[C@@H]1NC(=O)[C@@H](NC(=O)[C@H](CCCNC(=N)N)NC(=O)[C@@H](N)C(C)C)CSSC[C@@H](C(=O)N[C@H]2CSSC[C@@H](C(=O)N[C@H](C(=O)N[C@@H](Cc3ccc(O)cc3)C(=O)N[C@@H](Cc3ccc(O)cc3)C(=O)N[C@H](C(=O)N[C@@H](CCC(N)=O)C(=O)N[C@@H](CO)C(=O)N[C@@H](CCCNC(=N)N)C(=O)N[C@@H](CCC(=O)O)C(=O)O)[C@@H](C)O)C(C)C)NC(=O)[C@H](CCCNC(=N)N)NC(=O)[C@H](CO)NC(=O)[C@H](Cc3c[nH]cn3)NC(=O)[C@H](CCCNC(=N)N)NC(=O)[C@H](C)NC(=O)[C@H](Cc3ccccc3)NC(=O)[C@H](CO)NC(=O)[C@@H]3CCCN3C(=O)CNC(=O)[C@H](CCCCN)NC(=O)[C@H](CCC(N)=O)NC2=O)NC(=O)[C@@H]2CCCN2C(=O)[C@@H]2CCCN2C(=O)[C@H](CCCNC(=N)N)NC(=O)[C@H](Cc2ccccc2)NC(=O)[C@H](CC(C)C)NC(=O)[C@H](CCCCN)NC(=O)[C@H](CC(N)=O)NC(=O)[C@@H]2CCCN2C(=O)[C@H](CCC(N)=O)NC(=O)[C@H](C)NC(=O)CNC(=O)[C@H](CO)NC(=O)[C@H](CCCCN)NC(=O)[C@H](CCC(=O)O)NC1=O [αB-VxXXIVA [1], [2]] (H-VRCLEKSGAQPNKLFRPPCCQKGPSFARHSRCVYYTQSRE-OH; disulfide 3-19, 20-32) | – | – | 5.18
